Source: article PMC12264554, “Application of preclinical absorption, distribution, metabolism, elimination in vitro techniques for the characterization and compound library optimization of novel antibiotic gallium salophen” (Drug Metabolism and Disposition, 2025)

What was measured:
PL proteins = details: 2012, cited from earlier work; for PL protein bound: ref Pike and Skuterud, 1982, Zhang et al
S9 clearance assay = type: in vitro ADME; details: Sprague-Dawley, pH 7.4, S9 rat liver fraction
Experimental: Select library compounds were tested in triplicate at a concentration of 2 μM and incubated in 0.1 M potassium phosphate buffer containing 12 mM MgCl2 and 8 mM NADPH at pH 7.4 with 2.5 mg/mL of Sprague–Dawley S9 (Invitrogen). Incubations contained a final concentration of 2.5 mM UDP glucuronic acid, 0.10 mM adenosine 3’-phosphate 5’-phosphosulfate, 0.5 mM acetyl CoA, and 50 μg/mg protein alamethicin. All co-factors were from Sigma. Samples were incubated for 0, 3, 7, 12, 20, and 30 minutes. At the designated time point, the incubation reaction was stopped by adding 100 μL of ACN containing 1 μM of either GaSal-4 or GaSal-5 as the internal standard. […] A hundred microliter of supernatant was taken for LC-MS/MS analysis. 7-Ethoxycoumarin (Sigma) was used as a positive control in this experiment. Clearance was calculated according to eq. 3:(3) CLint=0.693/InVitroT1/2∗IncubationVolume/mgofS9∗165mgS9/gramofliver∗45gramsliver/kgofbodyweight
The average CLint ± SEM was determined for each compound for 3 replicates per time point.

[1] = Microsomal clearance assay; type: in vitro ADME, rat; details: 2 μM, rat liver microsomes
Experimental: Library compounds were tested in triplicate at a concentration of 2 μM and incubated in 0.1 M potassium phosphate buffer containing 12 mM MgCl2 and 8 mM NADPH at pH 7.4 with either 0.5 mg/mL of Sprague–Dawley liver microsomes (Invitrogen). Samples were incubated for 0, 3, 7, 12, 20, and 30 minutes. At the designated time point, the incubation reaction was stopped by adding 100 μL of ACN containing 1 μM of either GaSal-4 or GaSal-5 as the internal standards. […] 7-Ethoxycoumarin (Sigma) was used as a positive control in this experiment. Intrinsic clearance (CLint) was calculated using eq. 2:(2) CLint=0.693/InVitroT1/2∗IncubationVolume/mgofmicrosomes∗45mgmicrosomes/gramofliver∗45gramsliver/kgofbodyweight
The average CLint ± SEM was determined for each compound for 2 replicates per time point.

Caco-2 cells = test: Caco-2 permeability screening; type: in vitro ADME; details: Caco-2
Experimental: (§1) Caco-2 cells were received from American Type Culture Collection and certified mycoplasma free. Cells were seeded on transwell plates (CoStar, growth area 0.33 cm^2/well, polycarbonate membrane, 0.33 μm pore size) between passage 20 and 27 and then analyzed between 21 and 25 days after wells were seeded to ensure enterocyte-like differentiation. Before assessing permeability, cells were washed once with Hank’s Balanced Salt Solution buffer, pH 7.4, and then incubated at 37 °C for 30 minutes. Transepithelial electrical resistance (TEER) was measured after equilibration before the experiment using an epithelial volt-ohmmeter (EVOM, World Precision Instruments), and cells were used if TEER > 250 Ω × cm^2. Cells were dosed to measure permeability from basolateral and apical sides at a concentration of 20 μM of test compound and 50 μM of Lucifer yellow. Lucifer yellow was used as a “zero permeability” marker to monitor the integrity of cell barrier. Samples were taken at 0 and 60 minutes from the donor side, and samples were taken at 30 and 60 minutes from the receiver side; media was replenished after the 30-minute sample was taken from both chambers. A calibration curve was prepared by serial dilution using the dosing solution in a 1:5 dilution. […] Samples were prepared for LC-MS/MS analysis by taking 100 μL of sample, adding 1 μM internal standard (GaSal-4 or GaSal-5), and crashing with 400 μL of methanol. Samples were centrifuged at 3000 rpm at 4 °C for 30 minutes, 200 μL of supernatant was transferred to a new plate, and 100 μL of water was added to each sample. Samples were vortexed and analyzed by LC-MS/MS as described earlier. […] To preliminarily evaluate organic cation transporter 1 (OCT1) or P-glycoprotein (P-gp)-dependent transport, transport studies were conducted with and without a 1 μM “inhibitor cocktail” alongside GaSal. […] The Papp for basolateral to apical, Papp apical to basolateral, and efflux ratio were reported for each compound. In order to calculate Papp, the concentration in the sampled time point was determined from the calibration curve and then converted to μg based on the volume of the chamber (0.2 mL for apical, 1.0 mL for basolateral). […] The calculation of Papp was determined using eq. […] Data are presented as the average ± SEM for each compound analyzed as n = 3 on 2 different days with 2 different cell line passages, for n = 6 total. GaSal is n = 3 on 3 different cell line passages since this was used as a test compound for the inhibition cocktail experiments.

[2] = Caco-2 permeability screening; type: in vitro ADME; details: human, Caco-2, pH 7.4, known drug standards
Experimental: as §1

CN(C)CCC=C1c2ccccc2CCc2ccccc21 [amitriptyline]
PL protein bound (PL proteins): > 90%

CCOc1ccc2ccc(=O)oc2c1 [7-ethoxycoumarin, 7-Ethoxycoumarin, reference compound]
half-life at 2 µM (S9 clearance assay; average ± SEM n = 3): 25.2 ± 7.8 min
CLint scaled at 2 μM (S9 clearance assay; average ± SEM n = 3, read-out: Predicted CLint (converted)): 190 mL/min/kg
concentration change over 30 minutes in microsomes [1]: metabolized by the microsomes

CN(Cc1cnc2nc(N)nc(N)c2n1)c1ccc(C(=O)N[C@@H](CCC(=O)O)C(=O)O)cc1 [Methotrexate, reference compound]
Permeability Ranking (Caco-2 cells): Not Permeable
efflux ratio at 60 min, 20 μM ([2]; read-out: Efflux Ratio B to A/ A to B): 1.46
Papp A→B at 60 min, 20 μM ([2]; read-out: Papp Apical to Basolateral): 0.02 ± 0.001 ×10⁻⁶ cm/s
Papp B→A at 60 min, 20 μM ([2]; read-out: Papp Basolateral to Apical): 0.03 ± 0.01 ×10⁻⁶ cm/s
expected protein binding (PL proteins; control compounds, ref Zhang et al): 50%

CN(C)CCCN1c2ccccc2CCc2ccccc21 [imipramine]
PL protein bound (PL proteins): > 90%
